The text below walks through data of ChEMBL document CHEMBL5715954, “Silencing c-Myc translation as a therapeutic strategy through targeting PI3Kδ and CK1ε in hematological malignancies” (Blood, 2017).

Parameters in all cases: scale not given: the % may be the effect or the level left
In experiment [1] the target is ALK tyrosine kinase receptor (Homo sapiens) (UniProt Q9UM73). The experiment in a line: Inhibition of human ALK assessed as enzyme activity at 1 uM using poly[Glu:Tyr] (4:1) as substrate preincubated for 20 mins followed by [gamma-33P]-ATP addition and measured after 120 mins by radiometric Hot-SpotSM Kinase assay relative to control.
Experiment [2] addresses T1, Casein kinase I isoform alpha-like (Homo sapiens) (UniProt Q8N752).
T1 sequence (whole entry): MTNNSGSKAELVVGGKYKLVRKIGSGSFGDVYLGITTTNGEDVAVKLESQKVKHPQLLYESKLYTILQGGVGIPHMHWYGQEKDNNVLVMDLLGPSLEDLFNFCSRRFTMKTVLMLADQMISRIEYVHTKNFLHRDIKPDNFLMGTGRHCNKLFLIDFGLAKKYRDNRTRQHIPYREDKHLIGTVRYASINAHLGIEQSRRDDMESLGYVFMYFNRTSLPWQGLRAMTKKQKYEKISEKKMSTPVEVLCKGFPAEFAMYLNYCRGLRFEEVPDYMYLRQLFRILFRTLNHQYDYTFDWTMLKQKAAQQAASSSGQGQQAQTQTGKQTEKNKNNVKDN
Description: Inhibition of human CK1a1L assessed as enzyme activity at 1 uM using KRRRAL[pS]VASLPGL as substrate preincubated for 20 mins followed by [gamma-33P]-ATP addition and measured after 120 mins by radiometric Hot-SpotSM Kinase assay relative to control.

Experiment [3] addresses Ephrin type-A receptor 4 (Homo sapiens) (UniProt P54764). The experiment in a line: Inhibition of human EPHA4 assessed as enzyme activity at 1 uM using poly[Glu:Tyr] (4:1) as substrate preincubated for 20 mins followed by [gamma-33P]-ATP addition and measured after 120 mins by radiometric Hot-SpotSM Kinase assay relative to control.
The target of experiment [4] is Serine/threonine-protein kinase/endoribonuclease IRE2 (Homo sapiens) (UniProt Q76MJ5). The experiment in a line: Inhibition of human ERN2/IRE2 assessed as enzyme activity at 1 uM using myelin basic protein as substrate preincubated for 20 mins followed by [gamma-33P]-ATP addition and measured after 120 mins by radiometric Hot-SpotSM Kinase assay relative to control.

The target of experiment [5] is Macrophage colony-stimulating factor 1 receptor (Homo sapiens) (UniProt P07333). Description: Inhibition of human FMS assessed as enzyme activity at 1 uM using poly[Glu:Tyr] (4:1) as substrate preincubated for 20 mins followed by [gamma-33P]-ATP addition and measured after 120 mins by radiometric Hot-SpotSM Kinase assay relative to control.
The target in experiment [6] is Mitogen-activated protein kinase kinase kinase 11 (Homo sapiens) (UniProt Q16584). The experiment in a line: Inhibition of human MLK3 assessed as enzyme activity at 1 uM using myelin basic protein as substrate preincubated for 20 mins followed by [gamma-33P]-ATP addition and measured after 120 mins by radiometric Hot-SpotSM Kinase assay relative to control.
The target of experiment [7] is Serine/threonine-protein kinase NIM1 (Homo sapiens) (UniProt Q8IY84). Description: Inhibition of human NIM1 assessed as enzyme activity at 1 uM using KKKVSRSGLYRSPSMPENLNRPR as substrate preincubated for 20 mins followed by [gamma-33P]-ATP addition and measured after 120 mins by radiometric Hot-SpotSM Kinase assay relative to control.
For experiment [8], the target named is Protein kinase C theta type (Homo sapiens) (UniProt Q04759). The experiment in a line: Inhibition of human PKCtheta assessed as enzyme activity at 1 uM using ERMRPRKRQGSVRRRV as substrate preincubated for 20 mins followed by [gamma-33P]-ATP addition and measured after 120 mins by radiometric Hot-SpotSM Kinase assay relative to control.
In experiment [9] the target is SRSF protein kinase 2 (Homo sapiens) (UniProt P78362). Description: Inhibition of human SRPK2 assessed as enzyme activity at 1 uM using GRSRSRSRSR as substrate preincubated for 20 mins followed by [gamma-33P]-ATP addition and measured after 120 mins by radiometric Hot-SpotSM Kinase assay relative to control.
In experiment [10] the target is T2, Serine/threonine-protein kinase TAO3 (Homo sapiens) (UniProt Q9H2K8).
T2 sequence (whole entry): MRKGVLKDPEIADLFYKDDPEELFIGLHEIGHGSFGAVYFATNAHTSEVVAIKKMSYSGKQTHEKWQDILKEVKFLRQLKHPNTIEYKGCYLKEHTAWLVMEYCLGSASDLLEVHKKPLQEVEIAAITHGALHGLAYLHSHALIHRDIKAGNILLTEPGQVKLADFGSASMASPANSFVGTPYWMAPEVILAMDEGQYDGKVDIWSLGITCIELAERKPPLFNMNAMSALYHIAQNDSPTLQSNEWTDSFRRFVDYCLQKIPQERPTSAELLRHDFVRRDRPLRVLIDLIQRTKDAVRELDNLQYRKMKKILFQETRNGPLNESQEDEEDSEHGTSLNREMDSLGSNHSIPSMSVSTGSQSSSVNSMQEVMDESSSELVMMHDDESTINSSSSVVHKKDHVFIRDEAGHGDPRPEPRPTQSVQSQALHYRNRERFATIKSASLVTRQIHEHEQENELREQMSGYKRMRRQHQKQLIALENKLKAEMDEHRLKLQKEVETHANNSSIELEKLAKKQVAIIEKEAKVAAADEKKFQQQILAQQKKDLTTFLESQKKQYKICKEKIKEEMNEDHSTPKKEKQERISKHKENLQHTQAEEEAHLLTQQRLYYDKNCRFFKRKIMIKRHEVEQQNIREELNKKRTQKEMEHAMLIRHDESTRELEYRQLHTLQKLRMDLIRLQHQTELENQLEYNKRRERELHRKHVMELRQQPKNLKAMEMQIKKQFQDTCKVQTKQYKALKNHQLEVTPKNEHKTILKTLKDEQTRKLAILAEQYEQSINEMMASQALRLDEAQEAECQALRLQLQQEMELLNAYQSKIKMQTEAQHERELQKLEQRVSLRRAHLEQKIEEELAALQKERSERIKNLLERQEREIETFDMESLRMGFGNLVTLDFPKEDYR
Description: Inhibition of human TAOK3 assessed as enzyme activity at 1 uM using myelin basic protein as substrate preincubated for 20 mins followed by [gamma-33P]-ATP addition and measured after 120 mins by radiometric Hot-SpotSM Kinase assay relative to control.

Experiment [11] concerns the target TRAF2 and NCK-interacting protein kinase (Homo sapiens) (UniProt Q9UKE5). The experiment in a line: Inhibition of human TNIK assessed as enzyme activity at 1 uM using RLGRDKYKTLRQIRQ as substrate preincubated for 20 mins followed by [gamma-33P]-ATP addition and measured after 120 mins by radiometric Hot-SpotSM Kinase assay relative to control.
The target in experiment [12] is High affinity nerve growth factor receptor (Homo sapiens) (UniProt P04629). Description: Inhibition of human TRKA assessed as enzyme activity at 1 uM using poly[Glu:Tyr] (4:1) as substrate preincubated for 20 mins followed by [gamma-33P]-ATP addition and measured after 120 mins by radiometric Hot-SpotSM Kinase assay relative to control.
High affinity nerve growth factor receptor (Homo sapiens), sequence (P04629 33-796 limits assumed): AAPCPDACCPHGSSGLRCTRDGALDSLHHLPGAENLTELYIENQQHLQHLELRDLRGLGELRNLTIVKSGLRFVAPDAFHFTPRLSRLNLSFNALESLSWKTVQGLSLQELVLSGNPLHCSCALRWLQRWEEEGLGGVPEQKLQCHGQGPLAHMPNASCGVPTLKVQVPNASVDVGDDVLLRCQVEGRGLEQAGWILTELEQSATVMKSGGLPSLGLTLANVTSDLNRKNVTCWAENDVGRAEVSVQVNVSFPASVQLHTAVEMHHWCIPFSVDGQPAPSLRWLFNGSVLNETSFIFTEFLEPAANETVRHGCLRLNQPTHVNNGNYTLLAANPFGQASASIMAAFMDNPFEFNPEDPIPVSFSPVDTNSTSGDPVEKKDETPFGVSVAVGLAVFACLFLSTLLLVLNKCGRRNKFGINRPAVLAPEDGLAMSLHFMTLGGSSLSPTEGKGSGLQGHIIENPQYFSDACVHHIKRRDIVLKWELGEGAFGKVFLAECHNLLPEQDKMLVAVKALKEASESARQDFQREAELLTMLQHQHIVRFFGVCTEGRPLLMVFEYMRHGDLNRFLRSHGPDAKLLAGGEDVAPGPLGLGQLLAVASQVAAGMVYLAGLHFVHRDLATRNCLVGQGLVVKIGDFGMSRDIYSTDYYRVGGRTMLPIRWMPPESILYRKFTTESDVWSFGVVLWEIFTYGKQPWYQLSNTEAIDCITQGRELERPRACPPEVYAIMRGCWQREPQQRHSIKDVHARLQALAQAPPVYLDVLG

Macrophage colony-stimulating factor 1 receptor (Homo sapiens), sequence (P07333 whole entry): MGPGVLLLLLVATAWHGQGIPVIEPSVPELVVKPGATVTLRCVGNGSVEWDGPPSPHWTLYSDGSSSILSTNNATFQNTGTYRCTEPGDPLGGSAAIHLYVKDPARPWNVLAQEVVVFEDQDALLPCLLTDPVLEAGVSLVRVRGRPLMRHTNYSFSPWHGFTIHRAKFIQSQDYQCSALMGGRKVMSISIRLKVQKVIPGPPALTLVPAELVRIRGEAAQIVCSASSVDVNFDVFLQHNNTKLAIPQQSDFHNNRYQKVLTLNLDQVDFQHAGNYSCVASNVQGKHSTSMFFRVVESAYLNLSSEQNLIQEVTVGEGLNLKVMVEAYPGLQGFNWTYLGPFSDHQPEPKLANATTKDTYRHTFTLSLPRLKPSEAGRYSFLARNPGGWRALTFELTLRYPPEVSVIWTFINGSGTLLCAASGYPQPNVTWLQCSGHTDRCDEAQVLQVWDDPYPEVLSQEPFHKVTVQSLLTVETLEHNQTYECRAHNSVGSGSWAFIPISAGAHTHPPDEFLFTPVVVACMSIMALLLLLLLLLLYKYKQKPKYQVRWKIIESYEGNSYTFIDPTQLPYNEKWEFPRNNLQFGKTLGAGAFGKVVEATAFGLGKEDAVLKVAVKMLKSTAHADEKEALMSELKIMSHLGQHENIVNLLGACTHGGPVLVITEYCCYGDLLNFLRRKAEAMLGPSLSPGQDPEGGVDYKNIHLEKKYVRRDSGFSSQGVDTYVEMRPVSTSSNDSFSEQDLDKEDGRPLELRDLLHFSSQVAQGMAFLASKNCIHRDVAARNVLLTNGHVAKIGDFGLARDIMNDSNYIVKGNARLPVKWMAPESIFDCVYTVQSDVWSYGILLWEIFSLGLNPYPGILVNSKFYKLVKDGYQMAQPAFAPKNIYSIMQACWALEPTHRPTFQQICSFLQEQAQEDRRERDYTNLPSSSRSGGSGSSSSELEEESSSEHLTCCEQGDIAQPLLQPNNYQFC
Serine/threonine-protein kinase NIM1 (Homo sapiens), sequence (Q8IY84 whole entry): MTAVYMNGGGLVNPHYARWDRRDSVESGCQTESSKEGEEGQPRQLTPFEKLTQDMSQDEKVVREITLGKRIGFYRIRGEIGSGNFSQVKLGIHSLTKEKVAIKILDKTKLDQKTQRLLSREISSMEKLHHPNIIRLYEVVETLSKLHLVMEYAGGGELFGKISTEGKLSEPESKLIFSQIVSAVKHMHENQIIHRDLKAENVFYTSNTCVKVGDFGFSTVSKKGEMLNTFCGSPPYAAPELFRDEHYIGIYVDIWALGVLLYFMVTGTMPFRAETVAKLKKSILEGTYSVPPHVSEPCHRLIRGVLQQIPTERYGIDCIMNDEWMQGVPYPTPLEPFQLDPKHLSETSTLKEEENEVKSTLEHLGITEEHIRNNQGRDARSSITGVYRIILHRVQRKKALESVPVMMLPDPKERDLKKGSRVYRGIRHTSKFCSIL
Mitogen-activated protein kinase kinase kinase 11 (Homo sapiens), sequence (Q16584 whole entry, looked up): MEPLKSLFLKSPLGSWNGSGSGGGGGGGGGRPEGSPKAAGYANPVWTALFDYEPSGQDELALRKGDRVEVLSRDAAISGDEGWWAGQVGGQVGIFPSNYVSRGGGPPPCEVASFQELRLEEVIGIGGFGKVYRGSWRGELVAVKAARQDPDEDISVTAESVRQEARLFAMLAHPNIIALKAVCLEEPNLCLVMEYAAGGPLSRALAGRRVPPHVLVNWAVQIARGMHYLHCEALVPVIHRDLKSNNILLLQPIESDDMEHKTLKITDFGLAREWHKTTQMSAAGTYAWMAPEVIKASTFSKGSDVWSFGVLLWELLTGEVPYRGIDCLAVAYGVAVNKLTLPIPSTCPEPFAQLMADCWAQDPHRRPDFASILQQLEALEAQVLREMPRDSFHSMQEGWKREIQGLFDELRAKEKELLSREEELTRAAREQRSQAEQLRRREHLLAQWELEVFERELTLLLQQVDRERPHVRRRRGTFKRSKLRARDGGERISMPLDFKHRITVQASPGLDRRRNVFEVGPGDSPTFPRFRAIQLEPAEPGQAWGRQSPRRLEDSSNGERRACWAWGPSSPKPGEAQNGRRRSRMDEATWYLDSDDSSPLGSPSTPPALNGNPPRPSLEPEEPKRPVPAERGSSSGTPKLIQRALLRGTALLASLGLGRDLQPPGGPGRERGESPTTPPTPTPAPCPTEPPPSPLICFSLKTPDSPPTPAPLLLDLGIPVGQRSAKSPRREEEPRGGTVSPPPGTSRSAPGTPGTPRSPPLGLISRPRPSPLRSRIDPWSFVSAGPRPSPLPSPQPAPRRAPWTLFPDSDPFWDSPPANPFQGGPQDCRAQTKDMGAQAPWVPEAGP
Serine/threonine-protein kinase/endoribonuclease IRE2 (Homo sapiens), sequence (Q76MJ5 35-926 limits assumed): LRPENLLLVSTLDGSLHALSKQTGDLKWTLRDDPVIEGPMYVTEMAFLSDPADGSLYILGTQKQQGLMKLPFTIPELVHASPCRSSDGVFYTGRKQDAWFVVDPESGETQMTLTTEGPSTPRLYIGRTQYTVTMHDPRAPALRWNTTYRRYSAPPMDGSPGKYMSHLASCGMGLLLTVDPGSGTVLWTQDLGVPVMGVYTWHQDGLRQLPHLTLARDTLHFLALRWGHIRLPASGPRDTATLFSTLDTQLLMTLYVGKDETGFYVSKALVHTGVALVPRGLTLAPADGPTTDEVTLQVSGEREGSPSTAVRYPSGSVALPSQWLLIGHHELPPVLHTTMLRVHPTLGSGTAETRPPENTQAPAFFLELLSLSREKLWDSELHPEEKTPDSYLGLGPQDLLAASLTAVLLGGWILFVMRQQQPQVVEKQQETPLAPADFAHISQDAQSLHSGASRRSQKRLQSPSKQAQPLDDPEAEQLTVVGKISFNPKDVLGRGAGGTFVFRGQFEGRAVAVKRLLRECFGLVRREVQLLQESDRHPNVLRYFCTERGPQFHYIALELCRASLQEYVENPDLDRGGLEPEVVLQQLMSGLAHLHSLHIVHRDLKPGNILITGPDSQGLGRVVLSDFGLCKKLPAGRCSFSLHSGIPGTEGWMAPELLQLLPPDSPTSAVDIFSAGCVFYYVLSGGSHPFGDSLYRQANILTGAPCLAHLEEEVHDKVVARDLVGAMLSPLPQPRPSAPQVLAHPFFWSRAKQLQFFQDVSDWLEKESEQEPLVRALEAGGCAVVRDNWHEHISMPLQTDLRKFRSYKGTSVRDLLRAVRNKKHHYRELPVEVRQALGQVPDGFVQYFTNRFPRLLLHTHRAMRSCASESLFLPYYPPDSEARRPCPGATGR
SRSF protein kinase 2 (Homo sapiens), sequence (P78362 whole entry, looked up): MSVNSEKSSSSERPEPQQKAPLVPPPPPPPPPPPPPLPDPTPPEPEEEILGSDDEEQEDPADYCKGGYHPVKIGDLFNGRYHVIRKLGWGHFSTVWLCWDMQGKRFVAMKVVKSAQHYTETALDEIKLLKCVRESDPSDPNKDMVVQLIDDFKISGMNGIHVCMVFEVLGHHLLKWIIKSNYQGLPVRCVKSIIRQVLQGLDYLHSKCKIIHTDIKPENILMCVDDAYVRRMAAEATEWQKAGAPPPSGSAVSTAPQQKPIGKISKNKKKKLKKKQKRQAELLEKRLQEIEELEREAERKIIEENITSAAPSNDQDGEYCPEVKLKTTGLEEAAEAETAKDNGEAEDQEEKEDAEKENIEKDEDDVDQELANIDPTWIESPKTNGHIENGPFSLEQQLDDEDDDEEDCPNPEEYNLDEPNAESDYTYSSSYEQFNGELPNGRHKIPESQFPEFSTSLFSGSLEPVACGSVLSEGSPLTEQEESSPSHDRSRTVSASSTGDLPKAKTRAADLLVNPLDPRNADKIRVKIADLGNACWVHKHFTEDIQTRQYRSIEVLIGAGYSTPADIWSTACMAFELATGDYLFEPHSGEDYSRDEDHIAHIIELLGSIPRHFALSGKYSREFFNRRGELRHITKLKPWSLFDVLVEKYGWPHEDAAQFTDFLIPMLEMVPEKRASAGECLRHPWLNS

With `C[C@H](Nc1ncnc2nc[nH]c12)c1cc2cccc(Cl)c2c(=O)n1-c1ccccc1`, the Activity in experiment [1] was 96.7%; in experiment [2], 99.5%; in experiment [3] it was 87.9%; in experiment [4], 96.5%; in experiment [5], 100%; in experiment [6] it was 75.1%. The Activity amounted to 94% in experiment [7]; 112% in [8]; 92.3% in experiment [9]; 106% in experiment [10]; 99.7% in [11]; 87.3% in experiment [12].

Turning to `CC[C@H](Nc1ncnc2[nH]cnc12)c1nc2cccc(F)c2c(=O)n1-c1ccccc1`, the Activity in [1] was determined as 100%; in experiment [2], 101%; in [3], 93.8%; in experiment [4], 100%; in experiment [5], 98.1%; in experiment [6] it was 79.8%. Also, the Activity in experiment [7] was determined as 93.6%; in experiment [8], 109%; in experiment [9], 91.3%; in [10] it was 98.6%; in [11], 94.5%; in experiment [12], 91%.

For the molecule `CC(C)Oc1ccc(-c2nn([C@@H](C)c3oc4ccc(F)cc4c(=O)c3-c3cccc(F)c3)c3ncnc(N)c23)cc1F` [UMBRALISIB], the Activity in [1] amounted to 96.5%; in experiment [2], 103%; in [3] it was 85.9%; in experiment [4], 98.3%; in experiment [5] it was 104%; in experiment [6], 80.9%. In addition, the Activity was found to be 93% in experiment [7]; 106% in experiment [8]; 86% in experiment [9]; 106% in [10]; 97.7% in experiment [11]; 89% in experiment [12].
